Measured values taken from PMC9775191, “A Subset Screen of the Compounds Australia Scaffold Library Identifies 7-Acylaminodibenzoxazepinones as Potent and Selective Hits for Anti-Giardia Drug Discovery” (Biomedicines, 2022).

tested on: G. duodenalis BRIS/91/HEPU/1279; assay: Primary Giardia screen at 10 µM (live-cell imaging, automated counting); type: cell-based, Giardia duodenalis; conditions: 24 h
Summary of the method: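 Percent growth versus 0.2% DMSO vehicle, background-corrected with media-only wells, is reported at 24 and 48 h from automated live-cell counts. Testing used 10 μM final in a 3% O2 atmosphere, with plate quality checked by Z' factor.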

Row | SMILES | Average % Inhibition 24h [%]
1 | COc1ccc(Nc2nc(-c3nnn(-c4ccc(F)cc4F)c3C)ns2)cc1OC [SN00798157] | 11.4
2 | Cc1nc(N(C)C)cc(N2CCN(C(=O)Nc3cccc(C(F)(F)F)c3)CC2)n1 [SN00786482] | 10.6
3 | O=C(c1cc2occc2c(Nc2ccc(F)cc2)n1)N1CCN(c2ccccn2)CC1 [SN00790827] | 14.2

same assay, conditions: 24 h, first singlicate assay

Row | SMILES | % Inhibition n=1 24h [%]
4 | COc1ccc(Nc2nc(-c3nnn(-c4ccc(F)cc4F)c3C)ns2)cc1OC [SN00798157] | 18.3
5 | Cc1nc(N(C)C)cc(N2CCN(C(=O)Nc3cccc(C(F)(F)F)c3)CC2)n1 [SN00786482] | 15.1
6 | O=C(c1cc2occc2c(Nc2ccc(F)cc2)n1)N1CCN(c2ccccn2)CC1 [SN00790827] | 21.9

same assay, conditions: 24 h, re-assessment

Row | SMILES | % Inhibition n=2 24h [%]
7 | COc1ccc(Nc2nc(-c3nnn(-c4ccc(F)cc4F)c3C)ns2)cc1OC [SN00798157] | 4.5
8 | Cc1nc(N(C)C)cc(N2CCN(C(=O)Nc3cccc(C(F)(F)F)c3)CC2)n1 [SN00786482] | 6.1
9 | O=C(c1cc2occc2c(Nc2ccc(F)cc2)n1)N1CCN(c2ccccn2)CC1 [SN00790827] | 6.5

same assay, conditions: 48 h

Row | SMILES | Average % Inhibition 48h [%]
10 | COc1ccc(Nc2nc(-c3nnn(-c4ccc(F)cc4F)c3C)ns2)cc1OC [SN00798157] | 26.3
11 | Cc1nc(N(C)C)cc(N2CCN(C(=O)Nc3cccc(C(F)(F)F)c3)CC2)n1 [SN00786482] | 29.2
12 | O=C(c1cc2occc2c(Nc2ccc(F)cc2)n1)N1CCN(c2ccccn2)CC1 [SN00790827] | 31.0

same assay, conditions: 48 h, first singlicate assay

Row | SMILES | % Inhibition n=1 48h [%]
13 | Cc1ccnc(N2CCCC(C(=O)NC3CCCC3)C2)n1 (stereo not shown) [SN00795015] | 10.9
14 | O=C1CCCN1CC1CCCCN1c1cc(Cl)c(C(F)(F)F)cc1[N+](=O)[O-] (stereo not shown) [SN00780038] | 9.6
15 | Cc1ccc(NC(=O)Cn2nnc(-c3nc(-c4ccccc4)no3)c2N)cc1C [SN00788081] | 2.5
16 | COc1ccc(-c2cc(N3CCC(NC(=O)Cc4ccccc4)CC3)[nH]n2)cc1 [SN00800379] | 0.0
17 | COC(=O)CNC(=O)c1cn(-c2ccc(C(F)(F)F)cn2)nn1 [SN00771716] | 0.0
18 | CCOc1ccc(N/C(=N\S(C)(=O)=O)Nc2cc(C)c(Cl)cc2OC)cc1 [SN00795110] | 18.1
19 | CN1CCC(OC2CCN(C(=O)CC3CCCC3)CC2)CC1 [SN00801545] | 26.4
20 | COc1ccc(Nc2nc(-c3nnn(-c4ccc(F)cc4F)c3C)ns2)cc1OC [SN00798157] | 52.7
21 | Cc1ncc2c(n1)CN(C(C)c1nnc(-c3ccccc3)o1)CC2 (stereo not shown) [SN00807918] | 13.7
22 | CCOC(=O)N1CCN(c2nc(-c3cccs3)cc(C(F)(F)F)n2)CC1 [SN00784268] | 21.6
23 | Cn1cc(CN2C(=O)NC(C)(c3ccco3)C2=O)cn1 (stereo not shown) [SN00774074] | 16.2
24 | Cc1nsc(N2CCCN(C(=O)NCc3ccccc3C)CC2)n1 [SN00782653] | 0.0
25 | CN1C(=O)c2cc(C(=O)NCCCc3ccccc3)nn2CC1(C)C(=O)NC1CCCC1 (stereo not shown) [SN00788236] | 0.6
26 | Cc1cn2c(S(=O)(=O)N3CCN(c4ccc(F)cc4)CC3)c(C(C)C)nc2s1 [SN00799325] | 19.4
27 | O=C(c1csc(-c2ccncc2)n1)N1CCN(c2ccccc2)CC1 [SN00794830] | 15.8
28 | COc1cccc(C(=O)N(CC2CCOC2)C2CC2)c1 (stereo not shown) [SN00801182] | 0.0
29 | COCCNc1c(-c2ccc(O)cc2)nc2sc3cc(C)ccc3n12 [SN00795351] | 0.0
30 | O=c1c2cccnc2n(Cc2cc(=O)n3ccccc3n2)c(=O)n1CCc1ccccc1 [SN00784337] | 7.3
31 | Cc1cc(-c2csc(S(=O)(=O)Nc3ccc(Cl)c(C(F)(F)F)c3)c2)on1 [SN00797257] | 0.0
32 | Cn1cnc2cc(-c3noc(C4CCCO4)n3)ccc21 (stereo not shown) [SN00793699] | 22.8
33 | CCCNC(=O)CCNC(=O)N1CCCC1c1nc2cc(C)ccc2[nH]1 (stereo not shown) [SN00776915] | 37.1
34 | CC(NC(=O)c1cc2ccncc2[nH]1)c1ccccc1 (stereo not shown) [SN00798186] | 4.2
35 | O=C(Cn1cnc([N+](=O)[O-])n1)NCCc1ccccc1 [SN00783937] | 33.8
36 | O=C(CN1C(=O)CC2(CCCCC2)C1=O)Nc1ccc([N+](=O)[O-])cc1 [SN00777618] | 47.2
37 | CCN(CC)C(=O)c1cc(-c2cccs2)nc2cc(C)c(C)cc12 [SN00802800] | 16.9
38 | Cc1cccc(NC(=O)Nc2cc(F)c3[nH]c(=O)ccc3c2)c1C [SN00795412] | 0.0

Row | SMILES | % Inhibition n=1 48h [%]
39 | O=C1c2ccccc2C(=O)N1CC(=O)n1nc(-c2cccnc2)nc1NCc1cccs1 [SN00785806] | 3.6
40 | CCOc1ccc(S(=O)(=O)Nc2cccc(-c3ccc(OC)nn3)c2)cc1 [SN00792604] | 10.8
41 | CC(=O)N1CCCc2cc(S(=O)(=O)N3CCN(c4ccc(F)cc4)CC3)ccc21 [SN00793330] | 0.2
42 | Cc1cnn(CC(C)NCc2nc(-c3ccccn3)no2)c1 (stereo not shown) [SN00782812] | 19.9
43 | CCOc1ccc(-c2nc(CSCC(=O)N3CCN(c4ccc(Cl)cc4)CC3)c(C)o2)cc1 [SN00794684] | 0.0
44 | CC(NC(=O)C1CCOCC1)c1nc(-c2cccnc2)cs1 (stereo not shown) [SN00769908] | 0.0
45 | O=C(c1cccc(-c2nc(-c3ccc(F)cc3)no2)c1)N1CCN(c2ccccc2)CC1 [SN00795713] | 0.9
46 | CCn1c(C2NC(N)=Nc3nc4ccccc4n32)nc2ccccc21 (stereo not shown) [SN00776112] | 5.4
47 | CCc1noc(C)c1C(=O)N1CCCN(Cc2csc(C)n2)CC1 [SN00778114] | 29.4
48 | N/C(=N/OCc1ncc(-c2cccs2)o1)c1ccc(Oc2ccc(F)cc2)nc1 [SN00781212] | 41.6
49 | CCOC(=O)N1CCc2c(nc(-c3ccc(C)cc3)n(CC(=O)Nc3ccc(Cl)cc3)c2=O)C1 [SN00795497] | 41.5
50 | CN(Cc1ccccc1)C(=O)c1cccc2c1CCN2C(=O)Nc1ccccc1 [SN00799558] | 0.0
51 | c1cnc(-c2nnc(C3CCCNC3)[nH]2)cn1 (stereo not shown) [SN00802129] | 2.3
52 | CCc1onc(C)c1C1CCCN1S(=O)(=O)c1ccc(CC(C)C)cc1 (stereo not shown) [SN00793887] | 26.3
53 | CCC(=O)N1N=C2C3CCN(CC3)[C@@H]2[C@@H]1c1cccc(OC)c1OC [SN00785687] | 13.8
54 | Cc1nc(N(C)C)cc(N2CCN(C(=O)Nc3cccc(C(F)(F)F)c3)CC2)n1 [SN00786482] | 55.4
55 | O=C(Cn1c2ncccc2c(=O)n1-c1ccccc1)NC1CCCC1 [SN00791196] | 18.2
56 | CC(C)(C)c1cc2nc(-c3ccccc3)cc(C(=O)NC3CCCCNC3=O)n2n1 (stereo not shown) [SN00802787] | 0.0
57 | COc1ccc(C2NC(C(=O)O)Cc3c2[nH]c2ccccc32)c(OC)c1 (stereo not shown) [SN00783957] | 5.0
58 | NC(=O)c1nn2c(C(F)(F)F)cc(-c3ccccc3)nc2c1Br [SN00783344] | 38.7
59 | O=C(c1cn2ccccc2n1)N1CCN(c2ccccc2F)CC1 [SN00799900] | 4.9
60 | CCn1cc(C(=O)Nc2ccc(F)cc2)c(S(=O)(=O)N2CCC(C)CC2)n1 [SN00798700] | 0.0
61 | Cn1ncc2c(=O)[nH]c(CN3CCCC3Cc3ccccc3)nc21 (stereo not shown) [SN00772513] | 21.0
62 | CC(=O)N1CCc2cc(C(=O)CN3CCN(c4ccc(C(F)(F)F)cc4[N+](=O)[O-])CC3)ccc21 [SN00785201] | 3.8
63 | O=C1CC(C(=O)N2CCCCC2Cn2cccn2)CN1C1CCCC1 (stereo not shown) [SN00782719] | 0.0
64 | CC1CCCCN1S(=O)(=O)c1ccc(NC(=O)c2cc(-c3cccs3)on2)cc1 (stereo not shown) [SN00786280] | 10.1

Row | SMILES | % Inhibition n=1 48h [%]
65 | COc1ccc(CNC(=O)N2CCC(c3ccn4ncc(C(=O)N5CCOCC5)c4c3)CC2)cc1 [SN00803088] | 0.7
66 | O=C(NCc1ccc(Cl)cc1)c1noc2c1CCCC2 [SN00784503] | 0.0
67 | CC1(C(=O)NC2CCCCCCC2)CN(S(C)(=O)=O)CC(=O)N1c1ccc(F)cc1 (stereo not shown) [SN00787900] | 11.9
68 | O=C(Nc1ccccc1)N1CCCC1CN1CCCCC1 (stereo not shown) [SN00772093] | 16.8
69 | Cc1ccc(-c2nc(-c3cccnc3)sc2CC(=O)Nc2ccc3nc(C)sc3c2)cc1 [SN00774529] | 0.0
70 | CC(=O)c1c(C)[nH]c(C(=O)N2CCCC2c2nc(-c3cccc(C(F)(F)F)c3)c[nH]2)c1C (stereo not shown) [SN00772247] | 17.0
71 | O=S(=O)(Cc1ccc(C(F)(F)F)cc1)Cc1noc(C2CC2)n1 [SN00781153] | 0.0
72 | COc1cccc(Cn2c(CNC(=O)CCc3c(C)noc3C)nc3cccnc32)c1 [SN00793247] | 17.5
73 | O=[N+]([O-])c1cccc(S(=O)(=O)N2CCCCCC2c2cccs2)c1 (stereo not shown) [SN00793864] | 25.8
74 | CCOC(=O)c1cc2n(n1)CC(C)(C(=O)NCCC(C)C)N(CCc1cccs1)C2=O (stereo not shown) [SN00785530] | 6.6
75 | Cc1ccc(CN2CCN(C(=O)C3CCC3)c3cccnc32)cc1 [SN00790417] | 4.2
76 | O=C(CCC(=O)N1CCCC1c1nc2ccccc2[nH]1)c1ccccc1 (stereo not shown) [SN00776900] | 28.7
77 | COc1ccc(C(=O)Nc2cc(-c3nc(C)cs3)sc2C)cc1OC [SN00798474] | 27.2
78 | O=C(c1cc2occc2c(Nc2ccc(F)cc2)n1)N1CCN(c2ccccn2)CC1 [SN00790827] | 53.8
79 | O=C(NCc1cccc(C(F)(F)F)c1)C1CCCN(c2nccnc2Oc2ccccc2)C1 (stereo not shown) [SN00797123] | 15.6
80 | CCNC(=O)N1CCCC(c2cccc(C(=O)NCCC3=CCCCC3)c2)C1 (stereo not shown) [SN00790923] | 6.9
81 | CCOC(=O)c1sc(N2C(=O)C(O)=C(C(=O)c3ccco3)C2c2ccc(OC)cc2)nc1C (stereo not shown) [SN00776656] | 6.9
82 | CCCNC(=O)N1Cc2c(sc3c2CCCC3)-n2cccc2C1CC (stereo not shown) [SN00791532] | 15.0
83 | Cc1nn(-c2ccc(F)cc2)c2nc(N3CCCN(C(=O)Cc4cccs4)CC3)sc12 [SN00803162] | 27.0
84 | Cc1ccc(COCc2nn(C)c3c2CN(S(=O)(=O)c2ccc(F)c(C)c2)CC3)cc1 [SN00796451] | 2.1
85 | Cc1sc2ccn(CC(C)C)c(=O)c2c1C(=O)NCCN1CCCCC1 [SN00799956] | 23.1
86 | CC(=O)c1cccc(NC(=O)C2CCCN(S(=O)(=O)c3c(C)noc3C)C2)c1 (stereo not shown) [SN00784980] | 0.0
87 | CC(C)n1c(=O)c2cn(S(=O)(=O)c3ccccc3)nc2n(C(C)C)c1=O [SN00791107] | 5.9
88 | Cc1noc2ncnc(N3CCCC(C(=O)N4CCCCCC4)C3)c12 (stereo not shown) [SN00788609] | 0.0

same assay, conditions: 48 h, re-assessment

Row | SMILES | % Inhibition n=2 48h [%]
89 | COc1ccc(Nc2nc(-c3nnn(-c4ccc(F)cc4F)c3C)ns2)cc1OC [SN00798157] | 0.0
90 | Cc1nc(N(C)C)cc(N2CCN(C(=O)Nc3cccc(C(F)(F)F)c3)CC2)n1 [SN00786482] | 2.9
91 | O=C(c1cc2occc2c(Nc2ccc(F)cc2)n1)N1CCN(c2ccccn2)CC1 [SN00790827] | 8.1
